We go through one molecule from patent US20030161866A1, “Novel pharmaceutical formulation to limit or delay surface absorption” (priority 2000, published 2003).

Data set [1] in a line: Evaporation (weight loss) of DEET/IPA/clay samples under nitrogen. Particulars: no added IPA, over 12 hours under nitrogen, relative to amount of DEET. In kind it is physicochemical. The method, then: The samples prepared above were held at room temperature in the hood under nitrogen over a 12 hour period. Evaporation rates were measured every hour.
Samples of the HDTMA clay/DEET/IPA matrix were mixed as illustrated in Example 1. Volatile components of the matrix were evaporated using a constant flow of nitrogen over 12 hours in fume hood. Control samples of DEET with IPA only and DEET alone were subjected to the same conditions as the DEET with HDTMA treated clay.
Weight loss of the samples over 12 hours was used as a measure of the extent of evaporation. Samples were weighed at the beginning of the experiment (time 0) and at hourly intervals thereafter. Reported values are the difference between the original weight of formulation and the weight at sampling time, expressed as a percentage of the amount of IPA added to each. For the controls without IPA, percent weight loss was calculated relative to the amount of DEET in the original sample.

Data set [2] is described as follows: Visual (turbidity) solubility of DEET in IPA and water. The format is physicochemical. Particulars: aqueous with cosolvent or surfactant or cyclodextrin, thermodynamic from solid, read-out: limit of DEET solubility. The method, then: Homogenous solutions of different concentrations of DEET with varying percentages of IPA in water were prepared and subsequently incorporated into the clay. Solutions of 30%, 40%, and 50% IPA in water were prepared. DEET was completely miscible with IPA, which was also completely miscible with water. The addition of DEET to the solvent mixture was therefore expected to produce a single homogenous phase within the limits of its solubility. Solutions were prepared consisting of the solvent systems and varying concentrations of DEET, from 12.5-200 mg/ml. DEET was added to the solvent in increments of 50 mg until the solution appeared turbid after vortexing for 5 seconds. Turbidity was used as a marker for saturation.
Once various solvents were mixed with DEET, turbidity of the samples was used as a marker for saturation. All DEET spiking solutions were below saturation point.

For data set [3] the following is noted: within two hours of administration; cited from earlier work.
For data set [4] the following is noted: 24 hours after administration of the last dose; cited from earlier work.

Converted amounts (≈) assume the structure as drawn. Where two headings read alike, the source gives them in different places.

On to `CCN(CC)C(=O)c1cccc(C)c1` [DEET, N,N-diethyl-m-toluamide], for which the weight loss in data set [1] was found to be 4%. In addition, the solubility (as a rule, the concentration that dissolves in the medium under given conditions) at 5 seconds in data set [2] (30% IPA in water, 30% IPA in water) came out at 115 mg/mL (≈ 601 mM); in data set [2] (40% IPA in water, 40% IPA in water) it was 200 mg/mL (≈ 1050 mM); in data set [2] (50% IPA in water, 50% IPA in water), 200 mg/mL (≈ 1050 mM). The “dose administered topically that is absorbed” value in data set [3] is “Approximately 17%”. The “absorbed dose recovered in the urine” value in data set [4] was around 90%.
